{"source": "PubChem BioAssay (NCI)", "assay_in_all_cases": "NCI anticancer screen, dose series, 48 h", "key": {"KM12 colon": {"tested_on": "KM12 colon"}, "U251 CNS": {"tested_on": "U251 CNS"}, "SF-295 CNS": {"tested_on": "SF-295 CNS"}, "T-47D breast": {"tested_on": "T-47D breast"}, "UACC-257 melanoma": {"tested_on": "UACC-257 melanoma"}, "SR leukemia": {"tested_on": "SR leukemia"}, "LOX IMVI melanoma": {"tested_on": "LOX IMVI melanoma"}, "HCT-15 colon": {"tested_on": "HCT-15 colon"}, "786-0 renal": {"tested_on": "786-0 renal"}, "CAKI-1 renal": {"tested_on": "CAKI-1 renal"}, "OVCAR-5 ovarian": {"tested_on": "OVCAR-5 ovarian"}, "RPMI-8226 leukemia": {"tested_on": "RPMI-8226 leukemia"}, "SK-MEL-2 melanoma": {"tested_on": "SK-MEL-2 melanoma"}, "SF-268 CNS": {"tested_on": "SF-268 CNS"}, "EKVX NSCLC": {"tested_on": "EKVX NSCLC"}, "NCI-H522 lung": {"tested_on": "NCI-H522 lung"}, "NCI/ADR-RES ovarian": {"tested_on": "NCI/ADR-RES ovarian"}, "TK-10 renal": {"tested_on": "TK-10 renal"}, "MDA-MB-231 breast": {"tested_on": "MDA-MB-231 breast"}, "HS 578T breast": {"tested_on": "HS 578T breast"}, "UO-31 renal": {"tested_on": "UO-31 renal"}, "NCI-H226 lung": {"tested_on": "NCI-H226 lung"}, "HOP-62 NSCLC": {"tested_on": "HOP-62 NSCLC"}, "NCI-H460 lung": {"tested_on": "NCI-H460 lung"}, "BT-549 breast": {"tested_on": "BT-549 breast"}, "IGROV1 ovarian": {"tested_on": "IGROV1 ovarian"}, "SNB-19 CNS": {"tested_on": "SNB-19 CNS"}, "MOLT-4 leukemia": {"tested_on": "MOLT-4 leukemia"}, "SN12C renal": {"tested_on": "SN12C renal"}, "UACC-62 melanoma": {"tested_on": "UACC-62 melanoma"}, "SK-MEL-5 melanoma": {"tested_on": "SK-MEL-5 melanoma"}, "HL-60(TB) leukemia": {"tested_on": "HL-60(TB) leukemia"}, "SW-620 colon": {"tested_on": "SW-620 colon"}, "COLO 205 colon": {"tested_on": "COLO 205 colon"}, "M14 melanoma": {"tested_on": "M14 melanoma"}, "HCT-116 colon": {"tested_on": "HCT-116 colon"}, "MDA-MB-435": {"tested_on": "MDA-MB-435"}, "OVCAR-4 ovarian": {"tested_on": "OVCAR-4 ovarian"}, "SNB-75 CNS": {"tested_on": "SNB-75 CNS"}, "ACHN renal": {"tested_on": "ACHN renal"}, "HOP-92 NSCLC": {"tested_on": "HOP-92 NSCLC"}, "PC-3 prostate": {"tested_on": "PC-3 prostate"}, "SK-OV-3 ovarian": {"tested_on": "SK-OV-3 ovarian"}, "K-562 leukemia": {"tested_on": "K-562 leukemia"}, "A549 NSCLC": {"tested_on": "A549 NSCLC"}, "OVCAR-3 ovarian": {"tested_on": "OVCAR-3 ovarian"}, "DU-145 prostate": {"tested_on": "DU-145 prostate"}}, "note": "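Briefly, cells in 96-well plates were exposed to five compound concentrations for 48 h, and endpoints were estimated by linear interpolation. GI50: concentration for 50% inhibition of growth. Definition used: TGI = concentration required for complete inhibition of growth.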"}
{"smiles": "CC1=C(C(=O)Nc2ccc(Cl)c(Cl)c2)C(c2ccccc2Cl)NC(=S)N1", "note": "(centres undefined)", "values": [{"measurement": "GI50", "setting": "KM12 colon", "result": 8.71, "unit": "µM"}, {"measurement": "TGI", "setting": "KM12 colon", "result": 17.6, "unit": "µM"}, {"measurement": "GI50", "setting": "U251 CNS", "result": 11.9, "unit": "µM"}, {"measurement": "TGI", "setting": "U251 CNS", "result": 26.8, "unit": "µM"}, {"measurement": "GI50", "setting": "SF-295 CNS", "result": 9.46, "unit": "µM"}, {"measurement": "TGI", "setting": "SF-295 CNS", "result": 22, "unit": "µM"}, {"measurement": "GI50", "setting": "T-47D breast", "result": 18.9, "unit": "µM"}, {"measurement": "TGI", "setting": "T-47D breast", "result": "> 50", "unit": "µM"}, {"measurement": "GI50", "setting": "UACC-257 melanoma", "result": 14.5, "unit": "µM"}, {"measurement": "TGI", "setting": "UACC-257 melanoma", "result": 26.8, "unit": "µM"}, {"measurement": "GI50", "setting": "SR leukemia", "result": 11.7, "unit": "µM"}, {"measurement": "TGI", "setting": "SR leukemia", "result": "> 50", "unit": "µM"}, {"measurement": "GI50", "setting": "LOX IMVI melanoma", "result": "> 50", "unit": "µM"}, {"measurement": "TGI", "setting": "LOX IMVI melanoma", "result": "> 50", "unit": "µM"}, {"measurement": "GI50", "setting": "HCT-15 colon", "result": 7.8, "unit": "µM"}, {"measurement": "TGI", "setting": "HCT-15 colon", "result": 19, "unit": "µM"}, {"measurement": "GI50", "setting": "786-0 renal", "result": 10.2, "unit": "µM"}, {"measurement": "TGI", "setting": "786-0 renal", "result": 20, "unit": "µM"}, {"measurement": "GI50", "setting": "CAKI-1 renal", "result": 9.85, "unit": "µM"}, {"measurement": "TGI", "setting": "CAKI-1 renal", "result": 21.5, "unit": "µM"}, {"measurement": "GI50", "setting": "OVCAR-5 ovarian", "result": 13.6, "unit": "µM"}, {"measurement": "TGI", "setting": "OVCAR-5 ovarian", "result": 41.9, "unit": "µM"}, {"measurement": "GI50", "setting": "RPMI-8226 leukemia", "result": 4.18, "unit": "µM"}, {"measurement": "TGI", "setting": "RPMI-8226 leukemia", "result": 24, "unit": "µM"}, {"measurement": "GI50", "setting": "SK-MEL-2 melanoma", "result": 14.6, "unit": "µM"}, {"measurement": "TGI", "setting": "SK-MEL-2 melanoma", "result": 25.2, "unit": "µM"}, {"measurement": "GI50", "setting": "SF-268 CNS", "result": 5.62, "unit": "µM"}, {"measurement": "TGI", "setting": "SF-268 CNS", "result": 12.5, "unit": "µM"}, {"measurement": "GI50", "setting": "EKVX NSCLC", "result": 9.09, "unit": "µM"}, {"measurement": "TGI", "setting": "EKVX NSCLC", "result": 19, "unit": "µM"}, {"measurement": "GI50", "setting": "NCI-H522 lung", "result": 13.6, "unit": "µM"}, {"measurement": "TGI", "setting": "NCI-H522 lung", "result": 24.9, "unit": "µM"}, {"measurement": "GI50", "setting": "NCI/ADR-RES ovarian", "result": 9.62, "unit": "µM"}, {"measurement": "TGI", "setting": "NCI/ADR-RES ovarian", "result": 19.7, "unit": "µM"}, {"measurement": "GI50", "setting": "TK-10 renal", "result": 10.1, "unit": "µM"}, {"measurement": "TGI", "setting": "TK-10 renal", "result": 22.6, "unit": "µM"}, {"measurement": "GI50", "setting": "MDA-MB-231 breast", "result": 7.15, "unit": "µM"}, {"measurement": "TGI", "setting": "MDA-MB-231 breast", "result": 17.3, "unit": "µM"}, {"measurement": "GI50", "setting": "HS 578T breast", "result": 6.38, "unit": "µM"}, {"measurement": "TGI", "setting": "HS 578T breast", "result": 13.9, "unit": "µM"}, {"measurement": "GI50", "setting": "UO-31 renal", "result": 8.06, "unit": "µM"}, {"measurement": "TGI", "setting": "UO-31 renal", "result": 16.7, "unit": "µM"}, {"measurement": "GI50", "setting": "NCI-H226 lung", "result": 10.1, "unit": "µM"}, {"measurement": "TGI", "setting": "NCI-H226 lung", "result": 25.7, "unit": "µM"}, {"measurement": "GI50", "setting": "HOP-62 NSCLC", "result": 12.4, "unit": "µM"}, {"measurement": "TGI", "setting": "HOP-62 NSCLC", "result": 22.7, "unit": "µM"}, {"measurement": "GI50", "setting": "NCI-H460 lung", "result": 6.58, "unit": "µM"}, {"measurement": "TGI", "setting": "NCI-H460 lung", "result": 13.7, "unit": "µM"}, {"measurement": "GI50", "setting": "BT-549 breast", "result": 39.4, "unit": "µM"}, {"measurement": "TGI", "setting": "BT-549 breast", "result": "> 50", "unit": "µM"}, {"measurement": "GI50", "setting": "IGROV1 ovarian", "result": 22.5, "unit": "µM"}, {"measurement": "TGI", "setting": "IGROV1 ovarian", "result": "> 50", "unit": "µM"}, {"measurement": "GI50", "setting": "SNB-19 CNS", "result": 0.695, "unit": "µM"}, {"measurement": "TGI", "setting": "SNB-19 CNS", "result": 12.8, "unit": "µM"}, {"measurement": "GI50", "setting": "MOLT-4 leukemia", "result": 8.92, "unit": "µM"}, {"measurement": "TGI", "setting": "MOLT-4 leukemia", "result": "> 50", "unit": "µM"}, {"measurement": "GI50", "setting": "SN12C renal", "result": 8.53, "unit": "µM"}, {"measurement": "TGI", "setting": "SN12C renal", "result": 15.8, "unit": "µM"}, {"measurement": "GI50", "setting": "UACC-62 melanoma", "result": 8.01, "unit": "µM"}, {"measurement": "TGI", "setting": "UACC-62 melanoma", "result": 18.9, "unit": "µM"}, {"measurement": "GI50", "setting": "SK-MEL-5 melanoma", "result": 7.96, "unit": "µM"}, {"measurement": "TGI", "setting": "SK-MEL-5 melanoma", "result": 15.1, "unit": "µM"}, {"measurement": "GI50", "setting": "HL-60(TB) leukemia", "result": 15.4, "unit": "µM"}, {"measurement": "TGI", "setting": "HL-60(TB) leukemia", "result": "> 50", "unit": "µM"}, {"measurement": "GI50", "setting": "SW-620 colon", "result": 10.8, "unit": "µM"}, {"measurement": "TGI", "setting": "SW-620 colon", "result": 24.4, "unit": "µM"}, {"measurement": "GI50", "setting": "COLO 205 colon", "result": 8.01, "unit": "µM"}, {"measurement": "TGI", "setting": "COLO 205 colon", "result": 22.2, "unit": "µM"}, {"measurement": "GI50", "setting": "M14 melanoma", "result": 11.6, "unit": "µM"}, {"measurement": "TGI", "setting": "M14 melanoma", "result": 26.9, "unit": "µM"}, {"measurement": "GI50", "setting": "HCT-116 colon", "result": 6.23, "unit": "µM"}, {"measurement": "TGI", "setting": "HCT-116 colon", "result": 12.5, "unit": "µM"}, {"measurement": "GI50", "setting": "MDA-MB-435", "result": 8.08, "unit": "µM"}, {"measurement": "TGI", "setting": "MDA-MB-435", "result": 16.2, "unit": "µM"}, {"measurement": "GI50", "setting": "OVCAR-4 ovarian", "result": 23.6, "unit": "µM"}, {"measurement": "TGI", "setting": "OVCAR-4 ovarian", "result": "> 50", "unit": "µM"}, {"measurement": "GI50", "setting": "SNB-75 CNS", "result": 5.48, "unit": "µM"}, {"measurement": "TGI", "setting": "SNB-75 CNS", "result": 29.2, "unit": "µM"}, {"measurement": "GI50", "setting": "ACHN renal", "result": 10.9, "unit": "µM"}, {"measurement": "TGI", "setting": "ACHN renal", "result": 25.2, "unit": "µM"}, {"measurement": "GI50", "setting": "HOP-92 NSCLC", "result": 1.15, "unit": "µM"}, {"measurement": "TGI", "setting": "HOP-92 NSCLC", "result": 9.02, "unit": "µM"}, {"measurement": "GI50", "setting": "PC-3 prostate", "result": 8.08, "unit": "µM"}, {"measurement": "TGI", "setting": "PC-3 prostate", "result": 23.3, "unit": "µM"}, {"measurement": "GI50", "setting": "SK-OV-3 ovarian", "result": 12.5, "unit": "µM"}, {"measurement": "TGI", "setting": "SK-OV-3 ovarian", "result": "> 50", "unit": "µM"}, {"measurement": "GI50", "setting": "K-562 leukemia", "result": 11, "unit": "µM"}, {"measurement": "TGI", "setting": "K-562 leukemia", "result": "> 50", "unit": "µM"}, {"measurement": "GI50", "setting": "A549 NSCLC", "result": 24.1, "unit": "µM"}, {"measurement": "TGI", "setting": "A549 NSCLC", "result": "> 50", "unit": "µM"}, {"measurement": "GI50", "setting": "OVCAR-3 ovarian", "result": 10.5, "unit": "µM"}, {"measurement": "TGI", "setting": "OVCAR-3 ovarian", "result": 20.6, "unit": "µM"}, {"measurement": "GI50", "setting": "DU-145 prostate", "result": 11.9, "unit": "µM"}, {"measurement": "TGI", "setting": "DU-145 prostate", "result": "> 50", "unit": "µM"}]}
